“Also recorded” adds a separate entry of the source. Square brackets hold non-standard residues; d marks the D form. Ends that are not written are not given here. pY = N[C@@H](Cc1ccc(OP(=O)(O)O)cc1)C(=O)O; pS = N[C@@H](COP(=O)(O)O)C(=O)O
Assays:
[1] = system: expanded TIL / IHL cultures; assay: ICS for MHC-I-pP reactivity of liver-derived lymphocyte cultures after unspecific rapid expansion protocol (REP); assay type: cell-based, human
[2] = system: expanded lymphocyte cultures from deceased donor livers, cirrhotic livers and HCC; assay: ICS for MHC-I-pP reactivity of liver-derived lymphocyte cultures after phosphopeptide-specific expansion; assay type: cell-based, human; details: for ppCTL response, Deceased Donor Liver Do 2 / ppCTL response, Deceased Donor Liver Do 3 / ppCTL response, Deceased Donor Liver Do 4 / ppCTL response, Deceased Donor Liver Do 6 / ppCTL response, End-stage Liver Cirrhosis IHL 11 / ppCTL response, End-stage Liver Cirrhosis IHL 12 / ppCTL response, End-stage Liver Cirrhosis IHL 13 / ppCTL response, End-stage Liver Cirrhosis IHL 15 / ppCTL response, HCC Distal HCC 1 / ppCTL response, HCC Tumor HCC 1 / ppCTL response, HCC Distal HCC 4 / ppCTL response, HCC Distal HCC 9 / ppCTL response, HCC Tumor HCC 9 / ppCTL response, HCC Distal HCC 12: pP-specifically expanded culture; for ppCTL response, HCC Distal HCC 1: HCC 1 Distal; for ppCTL response, HCC Tumor HCC 1: HCC 1 Tumor; for ppCTL response, HCC Distal HCC 4: HCC 4 Distal; for ppCTL response, HCC Distal HCC 9: HCC 9 Distal; for ppCTL response, HCC Tumor HCC 9: HCC 9 Tumor; for ppCTL response, HCC Distal HCC 12: HCC 12 Distal
[3] = system: unexpanded lymphocyte cultures (CD8^+ T cells); assay: ICS for MHC-I-pP reactivity of lymphocyte cultures without expansion (Table 23, No Expansion)
[4] = system: CD8^+ T cells (PBMCs); assay: Ex vivo ICS of PBMCs after stimulation for 4 hours with the peptide; assay type: cell-based, human; details: PBMCs of a patient with hereditary hemochromatosis, 4 hours stimulation
[5] = system: CD8^+ T cells (PBMCs); assay: Intracellular cytokine staining (ICS) of PBMCs after 7 days of stimulation with MHC-I-pP (healthy donors, HH patients); assay type: cell-based, human; details: for Reactive CD8^+ T cell population, HH2: HH patient HH2; for Reactive CD8^+ T cell population, HH3: HH patient HH3; for Reactive CD8^+ T cell population, HH6: HH patient HH6; for Reactive CD8^+ T cell population, HH8: HH patient HH8; for Reactive CD8^+ T cell population, HH10: HH patient HH10; for Reactive CD8^+ T cell population, HH11: HH patient HH11; for Reactive CD8^+ T cell population, HD1: Healthy donor HD1; for Reactive CD8^+ T cell population, HD2: Healthy donor HD2; for Reactive CD8^+ T cell population, HD3: Healthy donor HD3; for Reactive CD8^+ T cell population, HD4: Healthy donor HD4; for Reactive CD8^+ T cell population, HD5: Healthy donor HD5
Outline: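 PBMCs or liver lymphocytes from HLA-A*0201-positive healthy donors and hereditary hemochromatosis patients were stimulated for 7 days with HLA-A*0201-restricted phosphopeptides and no added cytokines. After exclusion of doublets and dead cells with a fixable viability dye, CD3^+CD8^+ cells were analysed by intracellular staining for IFN-γ and TNF-α, plus CD107a where needed.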

Substance | Reactive CD8^+ T cells, Non-specific Expansion, Do2 [1] | Reactive CD8^+ T cells, Non-specific Expansion, Do4 [1] | Reactive CD8^+ T cells, Non-specific Expansion, HH6 [1] | Reactive CD8^+ T cells, pP-specific Expansion, Do2 [2] | Reactive CD8^+ T cells, pP-specific Expansion, Do4 [2] | Reactive CD8^+ T cells, pP-specific Expansion, HH6 [2] | ppCTL response, Deceased Donor Liver Do 2 [2] | ppCTL response, Deceased Donor Liver Do 3 [2] | ppCTL response, Deceased Donor Liver Do 4 [2] | ppCTL response, Deceased Donor Liver Do 6 [2] | ppCTL response, End-stage Liver Cirrhosis IHL 11 [2] | ppCTL response, End-stage Liver Cirrhosis IHL 12 [2] | ppCTL response, End-stage Liver Cirrhosis IHL 13 [2] | ppCTL response, End-stage Liver Cirrhosis IHL 15 [2] | ppCTL response, HCC Distal HCC 1 [2] | ppCTL response, HCC Tumor HCC 1 [2] | ppCTL response, HCC Distal HCC 4 [2] | ppCTL response, HCC Distal HCC 9 [2] | ppCTL response, HCC Tumor HCC 9 [2] | ppCTL response, HCC Distal HCC 12 [2] | also measured
RVAsPTSGV: IRS2 phosphopeptide, HLA-A*0201 (RVA[pS]PTSGV; listed as Homo sapiens) | 0 (<0.25% reactive CD8^-+ T cells) | 0 (<0.25% reactive CD8^-+ T cells) | 0 (<0.25% reactive CD8^-+ T cells) | 0 (<0.25% reactive CD8^-+ T cells) | 2 (2.5-5.0% reactive CD8^-+ T cells) | 0 (<0.25% reactive CD8^-+ T cells) | 0 (<0.25% reactive CD8-+ T cells) | 0 (<0.25% reactive CD8-+ T cells) | 2 (2.5-5.0% reactive CD8-+ T cells) | 1 (0.25-2.5% reactive CD8-+ T cells) | 0 (<0.25% reactive CD8-+ T cells) | 0 (<0.25% reactive CD8-+ T cells) | 0 (<0.25% reactive CD8-+ T cells) | 0 (<0.25% reactive CD8-+ T cells) | 0 (<0.25% reactive CD8-+ T cells) | 0 (<0.25% reactive CD8-+ T cells) | 0 (<0.25% reactive CD8-+ T cells) | 0 (<0.25% reactive CD8-+ T cells) | 0 (<0.25% reactive CD8-+ T cells) | 0 (<0.25% reactive CD8-+ T cells) | Reactive CD8^+ T cells, No Expansion, Do4 [3]: 3 (5-7.5% reactive CD8^-+ T cells); Reactive CD8^+ T cells, No Expansion, HH6 [3]: 0 (<0.25% reactive CD8^-+ T cells); ex vivo CD8^+ T cell response [4]: evident ex vivo; also recorded: ex vivo CD8^+ T cell response; Reactive CD8^+ T cell population, HH2 [5]: 0 (<0.25% reactive CD8^-+ T cells); Reactive CD8^+ T cell population, HH3 [5]: 0 (<0.25% reactive CD8^-+ T cells); Reactive CD8^+ T cell population, HH6 [5]: 0 (<0.25% reactive CD8^-+ T cells); Reactive CD8^+ T cell population, HH8 [5]: 0 (<0.25% reactive CD8^-+ T cells); Reactive CD8^+ T cell population, HH10 [5]: 2 (2.5-5.0% reactive CD8^-+ T cells); Reactive CD8^+ T cell population, HH11 [5]: 0 (<0.25% reactive CD8^-+ T cells); Reactive CD8^+ T cell population, HD1 [5]: 0 (<0.25% reactive CD8^-+ T cells); Reactive CD8^+ T cell population, HD2 [5]: 0 (<0.25% reactive CD8^-+ T cells); Reactive CD8^+ T cell population, HD3 [5]: 0 (<0.25% reactive CD8^-+ T cells); Reactive CD8^+ T cell population, HD4 [5]: 0 (<0.25% reactive CD8^-+ T cells); Reactive CD8^+ T cell population, HD5 [5]: 0 (<0.25% reactive CD8^-+ T cells)
VMIGsPKKV: TNS3 phosphopeptide, HLA-A*0201 (VMIG[pS]PKKV; listed as Homo sapiens) | 0 (<0.25% reactive CD8^-+ T cells) | 0 (<0.25% reactive CD8^-+ T cells) | 0 (<0.25% reactive CD8^-+ T cells) | 1 (0.25-2.5% reactive CD8^-+ T cells) | 0 (<0.25% reactive CD8^-+ T cells) | 0 (<0.25% reactive CD8^-+ T cells) | 2 (2.5-5.0% reactive CD8-+ T cells) | 0 (<0.25% reactive CD8-+ T cells) | 0 (<0.25% reactive CD8-+ T cells) | 0 (<0.25% reactive CD8-+ T cells) | 0 (<0.25% reactive CD8-+ T cells) | 0 (<0.25% reactive CD8-+ T cells) | 0 (<0.25% reactive CD8-+ T cells) | 0 (<0.25% reactive CD8-+ T cells) | 0 (<0.25% reactive CD8-+ T cells) | 0 (<0.25% reactive CD8-+ T cells) | 0 (<0.25% reactive CD8-+ T cells) | 0 (<0.25% reactive CD8-+ T cells) | 0 (<0.25% reactive CD8-+ T cells) | 0 (<0.25% reactive CD8-+ T cells) | Reactive CD8^+ T cells, No Expansion, Do4 [3]: 0 (<0.25% reactive CD8^-+ T cells); Reactive CD8^+ T cells, No Expansion, HH6 [3]: 0 (<0.25% reactive CD8^-+ T cells); Reactive CD8^+ T cell population, HH2 [5]: 0 (<0.25% reactive CD8^-+ T cells); Reactive CD8^+ T cell population, HH3 [5]: 0 (<0.25% reactive CD8^-+ T cells); Reactive CD8^+ T cell population, HH6 [5]: 0 (<0.25% reactive CD8^-+ T cells); Reactive CD8^+ T cell population, HH8 [5]: 0 (<0.25% reactive CD8^-+ T cells); Reactive CD8^+ T cell population, HH10 [5]: 1 (0.25-2.5% reactive CD8^-+ T cells); Reactive CD8^+ T cell population, HH11 [5]: 0 (<0.25% reactive CD8^-+ T cells); Reactive CD8^+ T cell population, HD1 [5]: 0 (<0.25% reactive CD8^-+ T cells); Reactive CD8^+ T cell population, HD2 [5]: 0 (<0.25% reactive CD8^-+ T cells); Reactive CD8^+ T cell population, HD3 [5]: 0 (<0.25% reactive CD8^-+ T cells); Reactive CD8^+ T cell population, HD4 [5]: 0 (<0.25% reactive CD8^-+ T cells); Reactive CD8^+ T cell population, HD5 [5]: 0 (<0.25% reactive CD8^-+ T cells)
yLQSRYYRA: HIPK3 phosphopeptide, HLA-A*0201 ([pY]LQSRYYRA; listed as Homo sapiens) | 0 (<0.25% reactive CD8^-+ T cells) | 0 (<0.25% reactive CD8^-+ T cells) | 0 (<0.25% reactive CD8^-+ T cells) | 2 (2.5-5.0% reactive CD8^-+ T cells) | 0 (<0.25% reactive CD8^-+ T cells) | 0 (<0.25% reactive CD8^-+ T cells) | 2 (2.5-5.0% reactive CD8-+ T cells) | 0 (<0.25% reactive CD8-+ T cells) | 0 (<0.25% reactive CD8-+ T cells) | 0 (<0.25% reactive CD8-+ T cells) | 0 (<0.25% reactive CD8-+ T cells) | 0 (<0.25% reactive CD8-+ T cells) | 0 (<0.25% reactive CD8-+ T cells) | 0 (<0.25% reactive CD8-+ T cells) | 0 (<0.25% reactive CD8-+ T cells) | 0 (<0.25% reactive CD8-+ T cells) | 0 (<0.25% reactive CD8-+ T cells) | 0 (<0.25% reactive CD8-+ T cells) | 1 (0.25-2.5% reactive CD8-+ T cells) | 0 (<0.25% reactive CD8-+ T cells) | Reactive CD8^+ T cells, No Expansion, HH6 [3]: 1 (0.25-2.5% reactive CD8^-+ T cells); Reactive CD8^+ T cell population, HH2 [5]: 0 (<0.25% reactive CD8^-+ T cells); Reactive CD8^+ T cell population, HH3 [5]: 0 (<0.25% reactive CD8^-+ T cells); Reactive CD8^+ T cell population, HH6 [5]: 1 (0.25-2.5% reactive CD8^-+ T cells); Reactive CD8^+ T cell population, HH8 [5]: 0 (<0.25% reactive CD8^-+ T cells); Reactive CD8^+ T cell population, HD1 [5]: 0 (<0.25% reactive CD8^-+ T cells); Reactive CD8^+ T cell population, HD4 [5]: 0 (<0.25% reactive CD8^-+ T cells); Reactive CD8^+ T cell population, HD5 [5]: 0 (<0.25% reactive CD8^-+ T cells)

Source: patent publication US20190374627A1, “TARGET PEPTIDES FOR CANCER THERAPY AND DIAGNOSTICS” (priority 2016, published 2019)
